# Values quoted from earlier work, collected in US20210292807A1, “METHOD FOR TESTING ANTIMICROBIAL SUSCEPTIBILITY” (priority 2017, published 2021).
# Where two headings read alike, the source gives them in different places.
# System: Klebsiella isolates
# Conditions: cited from earlier work
structure (smiles),measurement,setting,value
C[C@@H](O)[C@H]1C(=O)N2C(C(=O)O)=C(S[C@@H]3CN[C@H](C(=O)N(C)C)C3)[C@H](C)[C@H]12 [meropenem],"MIC, high-level resistance end of the collection's susceptibility phenotypes",48 Klebsiella isolates,> 256 µg/mL
same,"MIC, highly-susceptible end of the collection's susceptibility phenotypes",48 Klebsiella isolates,< 1.006 µg/mL
same,Referring Lab's MIC,"isolate 194, Sweden, VIM",≥32 mg/L
same,Referring Lab's MIC,"isolate 374, Sweden, VIM",>32 mg/L
same,Referring Lab's MIC,"isolate 3354, Australia",≤≤0.25 mg/L
same,Referring Lab's MIC,"isolate 10924, Sweden, KPC",4 mg/L
same,Referring Lab's MIC,"isolate 18397, Australia",≤≤0.25 mg/L
same,Referring Lab's MIC,"isolate 43288, Australia",≤≤0.25 mg/L
same,Referring Lab's MIC,"isolate 43292, Australia",≤≤0.25 mg/L
same,Referring Lab's MIC,"isolate 43358, Australia",≤≤0.25 mg/L
same,Referring Lab's MIC,"isolate 43854, Australia",≤≤0.25 mg/L
same,Referring Lab's MIC,"isolate 44271, Australia",≤≤0.25 mg/L
same,Referring Lab's MIC,"isolate 51575, Sweden, ESBL",0.064 mg/L
same,Referring Lab's MIC,"isolate 70708, Sweden, KPC",16 mg/L
same,Referring Lab's MIC,"isolate 71076, Sweden, KPC",≥32 mg/L
same,Referring Lab's MIC,"isolate 200822, Sweden, KPC",8 mg/L
same,Referring Lab's MIC,"isolate 270902, England",0.125 mg/L
same,Referring Lab's MIC,"isolate 500638, Sweden, pAmpC",≤0.25 mg/L
same,Referring Lab's MIC,"isolate 515870, Sweden, ESBL",0.125 mg/L
same,Referring Lab's MIC,"isolate 2440606, England",≤0.06 mg/L
same,Referring Lab's MIC,"isolate 2880622, England",≤0.06 mg/L
same,Referring Lab's MIC,"isolate 2880654, England, KPC",4 mg/L
same,Referring Lab's MIC,"isolate 2890369, England",1 mg/L
same,Referring Lab's MIC,"isolate 2980639, England",1 mg/L
same,Referring Lab's MIC,"isolate 3000770, England, NDM-1",>32 mg/L
same,Referring Lab's MIC,"isolate 3040820, England, pAmpC",≤0.06 mg/L
same,Referring Lab's MIC,"isolate 3080800, England, KPC",>32 mg/L
same,Referring Lab's MIC,"isolate ATCC 700603, USA",≤≤0.25 mg/L
same,Referring Lab's MIC,"isolate ATCC BAA 1705, USA, KPC",8 mg/L
same,Referring Lab's MIC,"isolate ATCC BAA 1706, USA",≤≤0.25 mg/L
same,Referring Lab's MIC,"isolate K1, Australia, OXA-181",64 mg/L
same,Referring Lab's MIC,"isolate K2, Australia, OXA-181",64 mg/L
same,Referring Lab's MIC,"isolate K8, Australia, NDM-1",>256 mg/L
same,Referring Lab's MIC,"isolate K14, Australia, KPC",256 mg/L
same,Referring Lab's MIC,"isolate K16, Australia, IMP - 4",2 mg/L
same,Referring Lab's MIC,"isolate K23, Australia, IMP - 4",0.5 mg/L
same,Referring Lab's MIC,"isolate KS1, Sri Lanka, OXA-181",1 mg/L
same,Referring Lab's MIC,"isolate KS2, Sri Lanka, OXA-181",≥32 mg/L
same,Referring Lab's MIC,"isolate KS17, Sri Lanka, OXA-181",≥32 mg/L
same,Referring Lab's MIC,"isolate KS23, Sri Lanka, OXA-181",≥32 mg/L
same,Referring Lab's MIC,"isolate N17, Sweden, NDM-1",≥32 mg/L
